US20220062243A1, “P14-Kinase Inhibitors with Anti-Cancer Activity” (The Board of Trustees of the Leland Stanford Junior …, priority 2019, published 2022)

What follows are compounds tested against PI4K-IIIβ (Homo sapiens, UniProt Q9UBF8) (assay: PI-kinase assay (membrane capture assay for lipid kinase activity), PI4KIIIβ). Conditions: read-out: PI4KIIIβ kinase activity (IC50 class).
PI4K-IIIβ, sequence (Q9UBF8 whole entry): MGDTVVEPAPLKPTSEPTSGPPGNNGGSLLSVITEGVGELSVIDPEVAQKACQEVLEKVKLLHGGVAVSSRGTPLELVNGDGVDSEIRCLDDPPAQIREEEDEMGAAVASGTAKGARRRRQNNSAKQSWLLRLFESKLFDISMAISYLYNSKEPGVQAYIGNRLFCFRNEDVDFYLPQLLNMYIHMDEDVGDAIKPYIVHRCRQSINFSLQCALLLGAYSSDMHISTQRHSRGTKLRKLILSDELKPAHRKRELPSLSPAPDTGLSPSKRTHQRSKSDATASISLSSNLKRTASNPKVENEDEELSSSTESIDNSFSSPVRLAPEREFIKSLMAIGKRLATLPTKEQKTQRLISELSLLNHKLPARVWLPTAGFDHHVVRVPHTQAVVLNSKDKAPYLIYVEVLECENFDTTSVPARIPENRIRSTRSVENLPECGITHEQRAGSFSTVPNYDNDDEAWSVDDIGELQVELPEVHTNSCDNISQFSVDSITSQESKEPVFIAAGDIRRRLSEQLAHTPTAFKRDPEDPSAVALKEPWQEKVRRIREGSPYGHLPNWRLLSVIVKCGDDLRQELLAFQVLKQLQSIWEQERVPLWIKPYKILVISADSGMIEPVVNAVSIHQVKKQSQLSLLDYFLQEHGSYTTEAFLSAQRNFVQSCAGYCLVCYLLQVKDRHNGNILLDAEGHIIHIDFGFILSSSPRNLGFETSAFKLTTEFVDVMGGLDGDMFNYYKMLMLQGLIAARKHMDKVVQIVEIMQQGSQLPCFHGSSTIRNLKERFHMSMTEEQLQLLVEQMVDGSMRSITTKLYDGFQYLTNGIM
Format: biochemical
Method: PI4-kinase inhibition can be determined by a kinase activity assay, e.g., by an assay that determines the level of incorporation of radiolabeled phosphate from [γ-^32P]-ATP into a substrate molecule after treatment with a subject compound, relative to a control, by measuring the beta-particle emission rate using a scintillation counter or phosphorimaging.
PI-kinase assay: Compounds are tested in C.1.1. PI kinase assays as described by Shokat et al., “A membrane capture assay for lipid kinase activity.” Nat. Protoc. […] Selected compounds of Table 1 and 2 were prepared and tested for inhibition activity in a variety of kinase assays.
`COc1ccc(-c2sc(NC(=O)CCC3CCCC3)nc2C)cc1S(=O)(=O)N[C@H]1CC[C@H](O)CC1` [Compound S-156, 3-cyclopentyl-N-[5-[3-[(4-hydroxycyclohexyl)sulfamoyl]-4-methoxy-phenyl]-4-methyl-thiazol-2-yl]propanamide] gave an IC50 of less than 100 nM.
`COc1ccc(-c2sc(NC3CCCCC3)nc2C)cc1S(=O)(=O)N[C@H]1CC[C@@H](O)CC1` [Compound S-167, 5-[2-(cyclohexylamino)-4-methyl-thiazol-5-yl]-N-(4-hydroxycyclohexyl)-2-methoxy-benzenesulfonamide] gave an IC50 of less than 100 nM.
Work on `COc1ccc(-c2sc(N[C@H](C)C3CCCCC3)nc2C)cc1S(=O)(=O)N[C@H]1CC[C@@H](O)CC1` [Compound S-198, 5-[2-[[(1R)-1-cyclohexylethyl]amino]-4-methyl-thiazol-5-yl]-N-(4-hydroxycyclohexyl)-2-methoxy-benzenesulfonamide] yielded an IC50 of 100 to 1000 nM.
Compound `COc1ccc(-c2sc(N[C@H](C)C3CCCCC3)nc2C)cc1S(=O)(=O)N[C@H]1CCNC1` [Compound S-201, 5-[2-[[(1R)-1-cyclohexylethyl]amino]-4-methyl-thiazol-5-yl]-2-methoxy-N-[(3S)-pyrrolidin-3-yl]benzenesulfonamide] has an IC50 of less than 100 nM.
Compound `COc1ccc(-c2sc(NC(=O)CC3CCCC3)nc2C)cc1S(=O)(=O)NC1CCCNC1` (stereo not shown) [Compound S-173, 2-cyclopentyl-N-[5-[4-methoxy-3-(3piperidylsulfamoyl)phenyl]-4-methyl-thiazol-2-yl]acetamide;2,2,2-trifluoroacetic acid] has an IC50 of less than 100 nM.
For `COc1ccc(-c2sc(N[C@H](C)C3CCCCC3)nc2C)cc1S(=O)(=O)NC1CCNCC1` [Compound S-147, 5-[2-[[(1R)-1-cyclohexylethyl]amino]-4-methyl-thiazol-5-yl]-2-methoxy-N-(4-piperidyl)benzenesulfonamide], the IC50 was less than 100 nM.
`COc1ccc(-c2sc(N[C@H](C)CC3CCCCC3)nc2C)cc1S(=O)(=O)NC1CCNCC1` [Compound S-145, 5-[2-[[(1R)-2-cyclohexyl-1-methyl-ethyl]amino]-4-methyl-thiazol-5-yl]-2-methoxy-N-(4-piperidyl)benzenesulfonamide] gave an IC50 of less than 100 nM.
`COc1ccc(-c2sc(NC(=O)CC3CCOCC3)nc2C)cc1S(=O)(=O)Nc1ccccc1F` [Compound S-230, N-[5-[3-[(2-fluorophenyl)sulfamoyl]-4-methoxy-phenyl]-4-methyl-thiazol-2-yl]-2-tetrahydropyran-4-yl-acetamide] gave an IC50 of less than 100 nM.
`COc1ncc(-c2sc(NC(=O)CC3CCOCC3)nc2C)cc1S(=O)(=O)N[C@H]1CC[C@@H](O)CC1` [Compound S-262] showed an IC50 of less than 100 nM.
`COc1ccc(-c2sc(NCC3CCCCC3)nc2C)cc1S(=O)(=O)NC1CCN(C2CC2)CC1` [Compound S-135, 5-[2-(cyclohexylmethylamino)-4-methyl-thiazol-5-yl]-N-(1-cyclopropyl-4-piperidyl)-2-methoxy-benzenesulfonamide] showed an IC50 of less than 100 nM.
`COc1ccc(-c2sc(NC(=O)CCC3CCCC3)nc2C)cc1S(=O)(=O)NC1CCNCC1` [Compound S-160, 3-cyclopentyl-N-[5-[4-methoxy-3-(4piperidylsulfamoyl)phenyl]-4-methyl-thiazol-2-yl]propanamide] gave an IC50 of less than 100 nM.
`COc1ccc(-c2sc(NCC3CCCCC3)nc2C)cc1S(=O)(=O)NC1CCN(C2CCCCC2)CC1` [Compound S-136, 5-[2-(cyclohexylmethylamino)-4-methyl-thiazol-5-yl]-N-(1-cyclohexyl-4-piperidyl)-2-methoxy-benzenesulfonamide] was tested, and the IC50 was less than 100 nM.
In the case of `COc1ccc(-c2sc(NC(=O)C3CCCC3)nc2C)cc1S(=O)(=O)Nc1ccc(CO)cc1` [Compound S-41, N-[5-[3-[[4-(hydroxymethyl)phenyl]sulfamoyl]-4-methoxy-phenyl]-4-methyl-thiazol-2-yl]cyclopentanecarboxamide], the IC50 is reported as less than 100 nM.
